Patent publication US11185548B2, “Inhibitors of cytochrome P450 family 7 subfamily B member 1 (CYP7B1) for use in treating diseases” (HELMHOLTZ ZENTRUM MÜNCHEN—DEUTSCHES FORSCHUNGSZENTRUM FÜR …, priority 2016, dated 2021)
Entries after “also recorded” stand apart in the source; their conditions may differ. One block for each compound: values may come before it.

Legend:
[1] = test system: IgM cross-linked splenic B cells; assay: ex vivo B cell migration assay towards medium from CSE treated airways; type: cell-based, mouse; details: 10% CSE
Method: (§1) Middle and distal airways from C57BL/6J and Ch25h^−/− mice were isolated and incubated ex vivo as described by Yildirim et al. (Eur Respir J 32, 694-704 (2008)). Briefly, after sacrifice by a ketamine-xylazine over dose, the trachea was cannulated, the lungs removed from the thorax and infused with 1% low-melting agarose dissolved in 1:1 Ham's F12 nutrient medium (Sigma-Aldrich) and distilled water (Gibco, Life Technologies). Airways were dissected under a microscope (Zeiss) from the left lung after the agarose had solidified on ice for 30 min. The isolated airways were washed and cultured in airway epithelial cell medium (PromoCell) at 37° C., 5% CO2.
B cells were purified from the spleens of C57BL/6J mice by negative selection (B cell Isolation Kit, mouse, Miltenyi Biotec). For the migration assay, primary mouse airways were isolated 1 day prior, treated with 10% cigarette smoke extract (CSE) in airway epithelial cell culture medium or culture medium alone for 24 h and at the same time to inhibit Cyp7b1, clotrimazole was also diluted with culture medium to a final concentration of 1 μM for 1 h prior to the migration assay. […] The supernatants were transferred as conditioned medium to the lower well of 24-well transwell plates (Permeable Polycarbonate Membrane Inserts, Corning, Fisher Scientific), for inducing B cell migration, while the airway samples were snap frozen in liquid nitrogen for RNA isolation. Freshly isolated B cells at 2.5×10^6/ml in 100 μl were activated by unconjugated AffiniPure F(ab′)2 Fragment Goat anti-mouse IgM, μchain specific antibody (1.3 μg/ml, 115-006-020, Jackson Immunoresearch Laboratories) for 1 hr at 37° C. in 5.0 μm pore sized transwell inserts (Permeable Polycarbonate Membrane Inserts, Corning, Fisher Scientific). Transwell inserts were then placed into the wells of conditioned medium and incubated for 3 hr at 37° C. Migrated B cells were collected and counted by Neubauer Chamber and reported as percentage of input.

Ch25h expression = assay: gene expression after 10% CSE + LPS stimulation: Ch25h; type: cell-based, mouse; details: 10% CSE + 10 μg/mL LPS
Method: (§2) The cells were incubated for 24h at 37° C., 5% CO2, in a 24 well-plate with or without 10% cigarette smoke extract (CSE, 10%)+lipopolysaccharide (LPS, 10 μg/mL), supplemented or not with the 18 CYP7B1 inhibitors (0.3 and 1 μM). B cells were purified from the spleens of C57BL/6J mice by negative selection (B cell Isolation Kit, mouse, Miltenyi Biotec). Freshly isolated B cells at 2.0×10^6/mL in 100 μL were activated by unconjugated AffiniPure F(ab′)2 Fragment Goat anti-mouse IgM, μchain specific antibody (10 μg/mL, 115-006-020, Jackson Immunoresearch Laboratories) for 1 hr at 37° C. in 5.0 μm pore sized transwell inserts (Permeable Polycarbonate Membrane Inserts, Corning, Fisher Scientific). Migrated B cells were collected, and counted by fluorescence-activated cell sorting (FACS) (Trucount tubes, BD Biosciences).
(§3) 10 ng RNA was reverse transcribed using Random Hexamers and MuLV Reverse Transcriptase (Applied Biosystems). Gene expression was analyzed using SensiFAST SYBR Hi-ROX Kit (Bioline) on a StepOnePlus 96 well Real-Time PCR System (Applied Biosystems). […] Expression of each gene was calculated relative to the housekeeping gene 18S as 2^−ΔCt.

Tnf expression = assay: gene expression after 10% CSE + LPS stimulation: Tnf; type: cell-based, mouse; details: 10% CSE + 10 μg/mL LPS
Method: as §2, §3

Cyp7b1 expression = assay: gene expression after 10% CSE + LPS stimulation: Cyp7b1; type: cell-based, mouse; details: 10% CSE + 10 μg/mL LPS
Method: as §2, §3

Ch25h mRNA = assay: quantitative real time RT-PCR of CSE treated airways: Ch25h; type: cell-based, mouse; details: CSE treated airways dissected from C57BL/6 mice, 1 μM clotrimazole
Method: (§4) 1 ug RNA was reverse transcribed using Random Hexamers and MuLV Reverse Transcriptase (Applied Biosystems). Gene expression was analyzed using SensiFAST SYBR Hi-ROX Kit (Bioline) on a StepOnePlus 96 well Real-Time PCR System (Applied Biosystems). Primer sequences can be found in Table 1. Expression of each gene was calculated relative to the housekeeping gene HPRT1 or Hprt1 as 2^−[…]Ct.
as §1
(§5) B cells were purified from the spleens of C57BL/6J mice by negative selection (B cell Isolation Kit, mouse, Miltenyi Biotec). […] Migrated B cells were collected and counted by Neubauer Chamber and reported as percentage of input.

[2] = test system: C57BL/6 mice exposed to cigarette smoke; assay: CS induced COPD model, clotrimazole therapeutic dosing; type: in vivo, mouse
Method: Experimental design: In the early treatment group C57BL/6 mice were exposed to filtered air (FA) or cigarette smoke (CS) for 4 months and treated with clotrimazole (i.p. 80 mg/Kg 3 times per week) from months 2 to 4 or oil controls. In the late treatment group C57BL/6 mice were exposed to FA or CS for 6 months and treated with clotrimazole from months 4 to 6 or oil controls.
8-12 week old mice were used in all experiments. For the CS induced COPD model, mice were exposed to 100% mainstream CS (John et al., Clinical science 126, 207-221 (2014)) at a particle concentration of 500 mg/m^3, generated from 3R4F research cigarettes (Filter removed, Tobacco Research Institute, University of Kentucky), for 50 min twice/day, 5 days/week for 4 or 6 months. Mice exposed to filtered air were used as controls. For the elastase induced iBALT-independent COPD model, mice were instilled oropharyngeally with a single application of 80 U/Kg body weight Porcine Pancreatic Elastase (PPE) (Sigma Aldrich) in 80 μl PBS. Mice treated with 80 μl PBS were included as controls. For Cyp7b1 inhibition, clotrimazole (Sigma Aldrich) 10 mM in DMSO, was further diluted in Corn oil (Mazola, Unilever) and applied i.p. at a dose of 80 mg/Kg body weight 3 times/week for two months. Mice were treated after two or four months of CS exposure and smoked for a further two months in parallel with the clotrimazole treatment.
After lung function analysis lungs were lavaged with 3×500 ul aliquots of sterile PBS (Gibco, Life Technologies) supplemented with Complete Protease Inhibitor Cocktail tablets (Roche Diagnostics). Cells were pelleted at 400 g for 20 min and resuspended in 500 μl RPMI-1640 medium (Gibco, Life Technologies) for the total cell count using a Neubauer Chamber. Cytospins of the cell suspension were then prepared and stained using May-Grünwald-Giemsa for differential cell counting (200 cells/sample) using morphological criteria. BAL fluid was retained for mass spectrometry analysis.
H&E stained tissue sections were analyzed by design-based stereology using an Olympus BX51 light microscope equipped with the new Computer Assisted Stereological Toolbox (newCAST, Visiopharm) as described (John-Schuster et al., American journal of physiology. Lung cellular and molecular physiology 307, L692-706 (2014)), by readers blinded to the study groups. Briefly, for mean chord length (MCL) measurements, 20 frames were selected randomly across multiple sections by the software, using the ×20 objective, and superimposed by a line grid and points. The intercepts of lines on alveolar wall (Lsepta) and points localized on air space (Pair) were counted and calculated as MCL=ΣPair××L(p)/ΣLsepta×0.5, where L(p) is the line length per point. The volume of inflammation (V) was quantified in 50 frames, using the ×40 objective, by counting points hitting inflammatory cell zones (Pinflam). For calculation, the Pinflam were referenced to intercepts of lines with both airways and vessels (Iairway/vessel): V=ΣPinflam×L(p)/ΣIairway/vessel. Further, airway, vessel or septum associated inflammation quantification was classified by the location of the inflammation, and was calculated referring to intercept of lines with airway, vessel, or both, respectively.

Cyp7b1 mRNA = assay: quantitative real time RT-PCR of CSE treated airways: Cyp7b1; type: cell-based, mouse; details: CSE treated airways dissected from C57BL/6 mice, 1 μM clotrimazole
Method: as §4, §1, §5

[3] = early and late treatment groups, i.p. 80 mg/Kg 3 times per week
[4] = early treatment: CS 4 months, i.p. 80 mg/Kg 3 times per week from months 2 to 4
[5] = late treatment: CS 6 months, i.p. 80 mg/Kg 3 times per week from months 4 to 6

SMILES: CC(C)(C(=O)c1cccnc1)c1cccnc1 [Metyrapone, 2-methyl-1,2-di(pyridin-3-yl)propan-1-one]
- migration of activated B cells towards culture supernatant from CSE-treated airways ([1]; compound 1 μM): impaired B cell migration

SMILES: CC(C)c1nc(CN(C)C(=O)N[C@H](C(=O)N[C@@H](Cc2ccccc2)C[C@H](O)[C@H](Cc2ccccc2)NC(=O)OCc2cncs2)C(C)C)cs1 [Ritonavir, 1,3-thiazol-5-ylmethyl N-[(2S,3S,5S)-3-hydroxy-5-[(2S)-3-methyl-2-{[methyl({[2-(propan-2-yl)-1,3-thiazol-4-yl]methyl})carbamoyl]amino}butanamido]-1,6-diphenylhexan-2-yl]carbamate]
- migration of activated B cells towards culture supernatant from CSE-treated airways ([1]; compound 0.1 μM): impaired B cell migration
- migration of activated B cells towards culture supernatant from CSE-treated airways ([1]; compound 1 μM): impaired B cell migration

- induction of Cyp7b1 expression (Cyp7b1 expression): inhibited
- induction of Cyp7b1 expression (Cyp7b1 expression; listed as Clotrimazole): inhibits the gene expression
SMILES: Clc1ccccc1C(c1ccccc1)(c1ccccc1)n1ccnc1 [clotrimazole, 1-[(2-Chlorophenyl)(diphenyl)methyl]-1H-imidazole]
- induction of Ch25h expression (Ch25h expression): inhibited
- induction of Ch25h expression (Ch25h expression; listed as Clotrimazole): inhibits the gene expression
- induction of Tnf (TNFα) expression (Tnf expression): inhibited
- induction of Tnf (TNFα) expression (Tnf expression; listed as Clotrimazole): inhibits the gene expression
- migration of activated B cells towards culture supernatant from CSE-treated airways ([1]; compound 1 μM): significantly impaired the ability of activated B cells to migrate; also recorded: impairs B cell migration
- Ch25h mRNA abundance (Ch25h mRNA): did not affect Ch25h levels
- cigarette smoke-induced COPD [2, 3]: protects against and reverses cigarette smoke-induced COPD
- lung inflammatory responses following exposure to chronic cigarette smoke [2, 3]: does not attenuate lung inflammatory responses
- emphysema development (mean chord length) [2, 4]: lack of emphysema development
- iBALT formation [2, 4]: significantly reduced iBALT formation
- lung volume [2, 4]: no deterioration in lung volume
- lymphocyte cell numbers in BAL fluid [2, 4]: reduced macrophage and lymphocyte cell numbers
- macrophage cell numbers in BAL fluid [2, 4]: reduced macrophage and lymphocyte cell numbers
- emphysema (mean chord length) [2, 5]: attenuated
- iBALT [2, 5]: attenuated
- lung volume [2, 5]: reduced lung volume
- macrophage cell numbers in BAL fluid [2, 5]: reduced macrophage cell numbers
- Cyp7b1 mRNA abundance (Cyp7b1 mRNA): sufficient to reduce Cyp7b1 mRNA expression

SMILES: Clc1ccc(COC(Cn2ccnc2)c2ccc(Cl)cc2Cl)c(Cl)c1 (racemic) [Miconazole, (RS)-1-(2-(2,4-Dichlorobenzyloxy)-2-(2,4-dichlorophenyl)ethyl)-1H-imidazole]
- migration of activated B cells towards culture supernatant from CSE-treated airways ([1]; compound 1 μM): impaired B cell migration
